Where only a bound is given, the exact number is not on record here.

Consider `CCC1(CC)CC(=O)c2ccc(O)cc2O1`, for which the melting point lay within 97 to 99 °C. Consider `COc1ccccc1-c1nc2cc(NC(=O)c3c(C(=O)O)cnn3C)ccn2n1`, for which the melting point came to 283 °C. To `CCCCCCOc1ccc(C(=O)Nc2ccccc2Oc2cccc(OCc3nnn[nH]3)c2)cc1` belongs 158 to 159 °C; to `COCCNC(=O)c1ccc(C)c(-n2c(C)cc(OCc3ccccc3CNC(=O)Nc3cc(C(C)(C)C)nn3-c3ccc(O)c(Cl)c3)c(Cl)c2=O)c1`, 179 to 180 °C; to `CC(=O)NCC1CC1c1c(C#N)ccc2nn(C)cc12` (stereo unspecified), 189 to 192 °C. The molecule `O=C(O)c1ccc(Cc2n[nH]c3c2c(=O)n(-c2ccccc2)c2ncccc32)cc1` showed a melting point of over 320 °C. For `CCn1nc2c(N)nc3cnccc3c2c1CC(C)(C)C`, the melting point is over 260 °C.

For `COc1ccc(CNc2cc(N3CCCC3CO)ccc2C(=O)NCc2ncccn2)cc1Cl` (stereo unspecified), the melting point lay in the range of 102 to 107 °C.

With `CC(C)(C)C1=C(c2ccc(C(=O)N3CCOCC3)c(O)c2)OCC1(C)C`, the melting point was in the range of 141 to 142 °C.

Molecule `CCC(OC)(c1cccc(OCc2cc3ccccc3n(C)c2=O)c1)c1nccs1` (stereo unspecified) showed a melting point of 123 to 125 °C. `COc1cc(/C=C/C(=O)CC(=O)c2ccc(O)c(OC)c2)ccc1O` yielded a melting point of 170 to 172 °C.

Consider `Cc1[nH]c(=O)[nH]c1C(=O)c1ccc(N2CCOCC2)cc1`, for which the melting point was 283 to 286 °C. For `CN(C)Cc1ccc(CSCCNc2ncc(Cc3ccn(Cc4ccccc4)c(=O)c3)c(=O)[nH]2)o1` the value was 95.5 to 98 °C; for `COc1ccc(/C=C/CN2CCN(C3c4ccccc4CCc4ncccc43)CC2)cc1[N+](=O)[O-]` (stereo unspecified), 159 to 161 °C; for `Nc1nc(S(N)(=O)=O)c2ncn(C3OC(CO)C(O)C3O)c2n1` (stereo unspecified), over 193 °C. For `CSc1ccc(N2CCN(CCCOc3ccc(C4=NCCO4)cc3)CC2)nn1` the value was 163 °C.

For `O=C1N[C@H](Cc2cccc(OCC(F)(F)F)c2)[C@H](c2ccc(F)cc2)O1` (racemic), the melting point fell in the range of 148 to 149 °C.

Molecule `CCOC(=O)c1c(-c2ccc(C)cc2)c2ccncc2c(=O)n1C` returned a melting point of 134 to 136 °C.

Molecule `COc1ccc(OC)c2c1C[C@](O)(C(C)=O)CC21SCCS1` showed a melting point of 175 to 178 °C. For `O=C(/C=C/c1ccc(C(=O)Nc2cccc(Nc3nc(-c4cccnc4)cs3)c2)cc1)NO` the value was 101 °C.

Take `CSc1ccc(N(C(C)C)S(=O)(=O)c2ccc(C)cc2)c([N+](=O)[O-])c1`: the melting point lay in the range of 124 to 126 °C. In turn, `CC(C)n1nc(-c2ccccc2)c(-c2ccc(F)cc2)c1CBr` came in with a melting point of 93 to 95 °C. The molecule `CC1C(=O)c2c(cc(OCC(=O)O)c(Cl)c2Cl)C1C` (stereo unspecified) returned a melting point of 174 to 176 °C. `Cc1ccc(N2CN(Cc3ccccc3)C3=NN=CC3=C2N)cc1`: the melting point lay within 195 to 196 °C.

`CC1(C)Oc2ccc(C#N)cc2[C@@H](N2CCCNC2=NC#N)[C@@H]1O` (relative stereo) registered a melting point of 152 to 153 °C. To `CCc1nc2c(C)cc(C)cc2n1-c1ccc(CCNC(=O)NS(=O)(=O)c2ccc(C)cc2)cc1` belongs 108 to 112 °C; to `O=[N+]([O-])c1ccc(OCc2ccccc2)c(CO)c1`, 81 to 83 °C. `C=CCN(CC=C)c1nc(NC(=O)C=C(C)C)n2oc(=O)nc2n1` displayed a melting point of 165 to 166 °C. To `Cc1nc(-c2ccc(Cl)cc2)n(-c2ccc(S(C)(=O)=O)cc2)n1` belongs 184 to 185 °C; to `CC(C)(C)C(=O)OCn1nc2ccc(OCCCN3CCC(OC(c4ccccc4)c4ccccc4)CC3)nn2c1=O`, 108 to 110 °C; to `CCCc1c(OCc2ccccc2)ccc2c(=O)cc(/C=C/C(=O)OCC)oc12`, 140 °C. To `Cn1ncnc1COc1nn2c(-c3ccccc3)nncc2c1-c1ccccc1` belongs 185 °C.

The molecule `O=[N+]([O-])c1cc(Cl)c(Cl)cc1N[C@H]1C=C[C@@H](CO)C1` had a melting point of 94.5 to 96.5 °C. For `COC1OCC2C(O)C3CCCCC3CC12` (stereo unspecified) the value was 75 to 77 °C. For `Cc1cc(O)c(O)cc1C` the value was 71 to 72 °C. To `CS(=O)c1cc(-c2ccc(Oc3ccccc3)cc2)nn1C(N)=O` (stereo unspecified) belongs 92 °C.

For the molecule `CN1CCc2c(cccc2NC(=O)c2ccccc2F)C1`, the melting point was found to be 112 °C. For `O=C1CCC2C3Cc4ccc(O)cc4C2(CCN3CC2CC2)C1` (stereo unspecified) the value was 125 to 127 °C; for `O=C(OC1COC1)c1sccc1OS(=O)(=O)Cl`, 92 to 94 °C.

Consider `COCCOCN1C(C)=C(C(=O)O)[C@@H](c2cccc([N+](=O)[O-])c2)C(C(=O)OC)=C1C`, for which the melting point is 124 °C. To `CC(C)(C)Cc1nc2cc(CC(=O)O)ccc2o1` belongs 108 to 109 °C; to `CCCn1c2c(c3c4c(-c5ccccc5)csc4ccc31)CN(C)CC2`, 156 °C; to `CC1(c2ccc(N)cc2)C(=O)Nc2cc(Cl)cc(Cl)c2C1=O` (stereo unspecified), 226 to 227 °C. For `CSC1=NC(=O)C(=Cc2nc(C(C)(C)C)c(O)c(C(C)(C)C)n2)S1` the value was 205 to 208 °C.

Take `CC1NC(=O)NN=C1c1ccccn1` (stereo unspecified): the melting point was 212 to 214 °C.

Regarding `O=C1c2ccccc2C(=O)N1c1ccc(N2C(=O)c3ccccc3C2=O)c(O)c1`, the melting point is over 300 °C. For `COc1cccc(C(=O)NCC2CCCCC2)c1NC(=O)N[C@@H](Cc1ccc(NC(=O)c2c(Cl)cccc2Cl)cc1)C(=O)O` the value was 175 °C; for `CSc1ccc(-c2ccc(C(=O)Nc3cc4ncc(CN5CCCC5)cc4cc3C)cc2)cc1`, 198 °C. To `COC(=O)C(C)Oc1ccc(Oc2ccc(Cl)cc2F)cc1` (stereo unspecified) belongs 55 to 57 °C.

For `Cc1c(Br)c(=O)n(C2CCCC2)c2nc(Nc3ccc(N4CCN(C(=O)OC(C)(C)C)CC4)cn3)ncc12`, the melting point was over 250 °C. To `CCOCc1nc2c(N)nc3cc(OCc4ccccc4Cl)ccc3c2n1CC(C)(C)NS(C)(=O)=O` belongs 253 to 255 °C; to `O=c1[nH]c2ccc(Cl)cc2n1CC1CCCCC1`, 62 °C; to `COC(=O)c1cc2ccc(OC)cc2n1CCN1CCC(NCc2cc3c(cn2)OCCO3)CC1`, 130 °C. Turning to `O=C(CBr)c1ccc(OCc2ccccc2)c(OCc2ccccc2)c1Cl`, the melting point lay in the range of 94 to 96 °C. On to `Cc1ccccc1-c1c(O)c2ccccc2[nH]c1=O`, for which the melting point is over 300 °C. To `Cc1nc(-c2ccccc2)nc(-c2cccc([N+](=O)[O-])c2)c1C(=O)NCN1CCN(C)CC1` belongs 129 to 131 °C; to `OC(c1ccc(F)cc1)(c1ccc(F)cc1)c1ncc[nH]1`, 198 to 200 °C; to `Cn1ncc(C(=O)c2ccc(S(C)(=O)=O)cc2Cl)c1O`, 272 to 275 °C. To `O=C(COc1ccc(C2=NNC(=O)NC2)cc1)NCCN1CCOCC1` belongs 216 to 217 °C; to `COCc1nc(C(C)(C)O)c(C(=O)OC)[nH]1`, 94.5 to 96 °C.

In turn, `c1ccc2cc(-c3cc4nccnc4[nH]3)ncc2c1` showed a melting point of 281 to 285 °C.

`COC(=O)c1ccc(Cn2c(=O)c3cc(C(=O)NCc4cccc(OC)c4)sc3n(C)c2=O)cc1OC` had a melting point of 200 to 203 °C. For `COCO[C@H]1C[C@H]2OC(C)(C)OC[C@]23C2C(CC[C@]3(O)C1)[C@@]1(OCOC)CC[C@H](CO)[C@@]1(C)C[C@H]2OCOC` (stereo partly specified) the value was 154 to 158 °C.

Consider `CSCc1cc(O)nc(CSC)n1`, for which the melting point lay within 101 to 102 °C. To `Cc1c(-c2cc(Cl)cc(Cl)c2)ccc2nc(N)nc(N)c12` belongs over 250 °C; to `CCOC(=O)C1=Cc2cccc(/C=C/C(=O)O)c2OCC1`, 166 to 168 °C. For `CC(=O)COC1CC2C3CCC4=CC(=O)CCC4(C)C3(F)C(O)CC2(C)C1(O)C(=O)CO` (stereo unspecified) the value was 203 to 208 °C; for `CC(=O)Oc1cccc2oc(C(=O)OCc3ccc(Cl)cc3)c(C)c12`, 95 to 100 °C. For `On1c(-c2ccccc2)csc1=S` the value was 149 to 151 °C; for `CC(C)(C)c1ccc(O)cc1Cl`, 65 to 67 °C; for `COc1ccc(-c2ncn(CCC(C)(C)NCC(O)c3ccc(O)c(CO)c3)n2)cc1` (stereo unspecified), 142 to 145 °C. For `O=C(c1cc2ccc(N3CCOCC3)cc2o1)C12CC3CC(CC(C3)C1)C2`, the melting point is 123 to 125 °C. To `CC(C)=C1C(=O)N(c2ccc(Cc3ccc(N)cc3)cc2)C(=O)/C1=C(\C)c1cc(-c2ccccc2)sc1C` belongs 82 to 94 °C; to `CCOC(=O)c1cc(=O)c2ccc(OC(=S)N(C)C)cc2o1`, 160 to 161 °C.

`CCOC1=C(C(=O)N(C)C)S(=O)(=O)N=C1N` registered a melting point of 221 to 223 °C.

In the case of `CCOc1ccc2cc(-c3nn(C(C)c4oc5ccccc5c(=O)c4-c4cccc(F)c4)c4ncnc(N)c34)ccc2c1` (stereo unspecified), the melting point was 286 to 290 °C. For `COc1ccc(-c2cc(=Nc3c(C)cc(C)cc3C)n(C)c(=O)n2CC(=O)O)cc1OC` the value was 148 to 150 °C; for `CC(C)(C)c1cccc(S(=O)(=O)Nc2cc(C(F)(F)F)ccc2I)c1`, 134 °C; for `O=C(Cc1c(-c2ccccc2)c2cc(O)c(Cl)cc2oc1=O)Nc1ccc(F)cc1C(F)(F)F`, 240 to 243 °C. For `NC(=O)NC[C@@H]1CCCc2cc(Sc3cccc(F)c3)ccc21` the value was 115 to 116 °C; for `COc1cc2c(cc1-c1cc(-c3ccc(C#N)cc3)on1)C(C)(C)CCC2(C)C`, 202 to 203 °C. `Cc1ccc(Cn2[nH]c(N)cc2=O)cc1`: the melting point was 149 °C.

`COc1ccc(C2(C=O)C=CC=CC2)cc1OCCCC1(c2noc3cc(F)ccc23)CCNCC1` (stereo unspecified) gave a melting point of 140 to 141 °C.

On to `COC(=O)C(=O)c1ccc(OC/C=C/c2ccc3ccccc3c2)cc1`, for which the melting point was 100 to 102 °C.

As for `CC1(C)Cc2cccc(O)c2S1`, the melting point is 87 to 92 °C. To `COC(c1ccc(Cl)c2nc3n(c12)CCCN3c1ccc(Cl)cc1Cl)C(F)(F)F` (stereo unspecified) belongs 161 to 163 °C.

The values are drawn from a melting point compilation (Tetko et al.; mined from patent text by program, amines drawn as free bases though some values may be those of a salt).
